# From patent US5585355A, “Method for increasing blood-ocular barrier permeability with permeabilizer peptides” (Alkermes, Inc., priority 1994, dated 1996)
# Assays:
# blood-ocular barrier [1] = experiment: Uptake of [3H]-ganciclovir into the eye after arterial infusion of A-7 (VEP); assay type: in vivo, guinea pig; settings: for KIN of [3H]-ganciclovir: 0 min to 3.0 min; for KIN for ganciclovir, times higher in the presence of A-7: 0 to 3.0 min
# Procedure: Animals were anaesthetized with 6 mg/kg xylazine (Rompun®, Mobay Corp., Shawnee, Kans.) and 30 mg/kg ketamine (Vetacet®, Abeco Co., Inc., Fort Dodge, Iowa) before surgically exposing the neck vessels. The vascular eye perfusion (VEP) technique used here and previously described by Zlokovic et al. (1992, Exp. Eye Res., 54:471) allows for the study of uptake of agents in to the eye while protecting the eye from systemic metabolic changes. The technique is briefly summarized here. A fine polyethylene catheter connected to the extracorporeal perfusion system by silicon tubings was inserted into the right common carotid artery. Immediately after the start of the perfusion, the contralateral carotid artery was ligated and both jugular veins cut to allow free drainage of the perfusate.
# The perfusion medium consisted of 20% washed sheep red blood cells (RBC) suspended in mock plasma of the following composition (in mM): 123 NaCl, 4 KCl, 2.5 CaCl2.H2 O, 25 NaHCO3, 1.2 KH2 PO4, 1.8 MgCl2.6H2 O and 5.5 D-glucose. The perfusion medium was gassed with 96% O2 and 4% CO2 and warmed to 37.6° C., and was pumped from a reservoir through a water bath using a Rainin Rabbit peristaltic pump (Rainin Instruments, Woburn, Mass.). All tubing was low gas permeable silicon, and all metal was medical grade stainless steel. The temperature and perfusion pressure were continuously recorded, and the acid-base status frequently monitored. Perfusion pressure was kept slightly above the animal's blood pressure to eliminate any possible ingress from the systemic circulation.
# Isotopically labeled [^14 C]-sucrose was introduced into the perfusion circuit after the 5 minute infusion at a rate of 0.4 to 0.6 μCi/ml/min, over periods ranging from 1.5 min to 4.5 min. In all experiments, the perfusion was terminated by severing the right common carotid artery and decapitating the animal.
# As large a sample as possible (30-40 μl) of the aqueous humor was removed with a 0.5 cc U-100 insulin syringe using 28 G 1/2 microfine IV needle (no dead-space), immediately after the perfusion was terminated. The eyes were enucleated and the lenses rapidly excised via a lateral approach 1.5 mm posteriorly to the limbus. The lenses were blotted on filter paper to remove any adhering aqueous humor and to avoid epithelial contamination by aqueous radioactivity. Corneas were dissected circumferentially about 0.5 mm anteriorly to the limbus. After removal of the anterior segment of the eye, the vitreous body was dissected from the retinal surface. Retinas were scooped from the lying epithelium. All tissues were blotted after dissection to minimize contamination by adjacent tissue layers and/or fluids. Samples of plasma, aqueous humor, lens, cornea, retina and posterior vitreous were treated with 2 ml Beckman Tissue Solubilizer (BTS)-450, and 16 ml of scintillant (Beckman Ready Organic, Fullerton, Calif.). Radioactivity was determined in a Beckman LS-7500 liquid scintillation spectrometer.
# The methodology of these experiments is similar to that of Example 1 described above. […] The ocular compartments were dissected as described above and analyzed for uptake of [^3 H]-ganciclovir.
# blood-ocular barrier [2] = experiment: Uptake of [3H]-ganciclovir into retina and lens following intravenous administration of A-7; assay type: in vivo, guinea pig; settings: for Uptake of [3H]-ganciclovir, % of plasma concentration (W/W): five minute intravenous administration of A-7
# Procedure: The methodology of these experiments is similar to that of Example 1 except for the following modifications. In this case, [^3 H]-ganciclovir (22 Ci mmol^-1, Moravek Brea, Calif.) was injected into the right jugular vein instead of the common carotid artery. […] The lenses and retinas were removed as described in Example 1.
substance,measurement,setting,value
Arginine-Proline-Hydroxyproline-Glycine-Thienylalanine-Serine-Proline-4-Me-Tyrosine-(CH2 NH)Arginine [A-7],"Uptake of [3H]-ganciclovir, % of plasma concentration (W/W)","blood-ocular barrier [1]; aqueous, 1.5 min, arterial infusion of A-7",0.46 ± 0.1 % of Plasma Concentration (W/W
same,"Uptake of [3H]-ganciclovir, % of plasma concentration (W/W)","blood-ocular barrier [1]; aqueous, 3.0 min, arterial infusion of A-7",0.51 ± 0.21 % of Plasma Concentration (W/W
same,"Uptake of [3H]-ganciclovir, % of plasma concentration (W/W)","blood-ocular barrier [1]; aqueous, 4.5 min, arterial infusion of A-7",0.55 ± 1.0 % of Plasma Concentration (W/W
same,Ganciclovir uptake into other compartments,"blood-ocular barrier [1]; compartments other than retina and lens, within the measured time periods",did not substantially increase
same,KIN of [3H]-ganciclovir,blood-ocular barrier [1]; cornea,1.21 µL/min/g
same,"Uptake of [3H]-ganciclovir, % of plasma concentration (W/W)","blood-ocular barrier [1]; cornea, 1.5 min, arterial infusion of A-7",1.16 ± 0.53 % of Plasma Concentration (W/W
same,"Uptake of [3H]-ganciclovir, % of plasma concentration (W/W)","blood-ocular barrier [1]; cornea, 3.0 min, arterial infusion of A-7",2.98 ± 0.33 % of Plasma Concentration (W/W
same,"Uptake of [3H]-ganciclovir, % of plasma concentration (W/W)","blood-ocular barrier [1]; cornea, 4.5 min, arterial infusion of A-7",2.92 ± 0.46 % of Plasma Concentration (W/W
same,KIN of [3H]-ganciclovir,blood-ocular barrier [1]; lens,40.3 ± 5.6 µL/min/g
same,"KIN for ganciclovir, times higher in the presence of A-7",blood-ocular barrier [1]; lens,1.3 times
same,"Uptake of [3H]-ganciclovir, % of plasma concentration (W/W)","blood-ocular barrier [1]; lens, 1.5 min, arterial infusion of A-7",7.89 ± 0.52 % of Plasma Concentration (W/W
same,"Uptake of [3H]-ganciclovir, % of plasma concentration (W/W)","blood-ocular barrier [1]; lens, 3.0 min, arterial infusion of A-7",11.86 ± 1.42 % of Plasma Concentration (W/W
same,"Uptake of [3H]-ganciclovir, % of plasma concentration (W/W)","blood-ocular barrier [1]; lens, 4.5 min, arterial infusion of A-7",13.37 ± 1.06 % of Plasma Concentration (W/W
same,Increase in uptake of ganciclovir into the lens,"blood-ocular barrier [1]; lens, from 1.5 to 4.5 minutes of VEP",1.5-2 fold
same,KIN of [3H]-ganciclovir,blood-ocular barrier [1]; retina,21.2 ± 1.5 µL/min/g
same,"KIN for ganciclovir, times higher in the presence of A-7",blood-ocular barrier [1]; retina,2.6 times
same,"Uptake of [3H]-ganciclovir, % of plasma concentration (W/W)","blood-ocular barrier [1]; retina, 1.5 min, after 5 min arterial infusion of A-7",3.96 ± 0.68 % of Plasma Concentration (W/W
same,"Uptake of [3H]-ganciclovir, % of plasma concentration (W/W)","blood-ocular barrier [1]; retina, 3.0 min, after 5 min arterial infusion of A-7",6.56 ± 0.79 % of Plasma Concentration (W/W
same,"Uptake of [3H]-ganciclovir, % of plasma concentration (W/W)","blood-ocular barrier [1]; retina, 4.5 min, after 5 min arterial infusion of A-7",7.42 ± 1.14 % of Plasma Concentration (W/W
same,Increase of retinal uptake of ganciclovir compared to vehicle control,"blood-ocular barrier [1]; retina, from 1.5 to 4.5 minutes of VEP",two-fold
same,KIN of [3H]-ganciclovir,blood-ocular barrier [1]; vitreous,0.47 µL/min/g
same,"Uptake of [3H]-ganciclovir, % of plasma concentration (W/W)","blood-ocular barrier [1]; vitreous, 1.5 min, arterial infusion of A-7",0.02 ± 0.00 % of Plasma Concentration (W/W
same,"Uptake of [3H]-ganciclovir, % of plasma concentration (W/W)","blood-ocular barrier [1]; vitreous, 3.0 min, arterial infusion of A-7",0.04 ± 0.03 % of Plasma Concentration (W/W
same,"Uptake of [3H]-ganciclovir, % of plasma concentration (W/W)","blood-ocular barrier [1]; vitreous, 4.5 min, arterial infusion of A-7",0.11 ± 0.04 % of Plasma Concentration (W/W
same,"Uptake of [3H]-ganciclovir, % of plasma concentration (W/W)","blood-ocular barrier [2]; lens, 1.5 min",5.46 ± 1.08 % of Plasma Concentration (W/W
same,"Uptake of [3H]-ganciclovir, % of plasma concentration (W/W)","blood-ocular barrier [2]; lens, 4.5 min",10.01 ± 1.37 % of Plasma Concentration (W/W
same,"Uptake of [3H]-ganciclovir, % of plasma concentration (W/W)","blood-ocular barrier [2]; retina, 1.5 min",3.94 ± 0.36 % of Plasma Concentration (W/W
same,"Uptake of [3H]-ganciclovir, % of plasma concentration (W/W)","blood-ocular barrier [2]; retina, 4.5 min",8.45 ± 1.00 % of Plasma Concentration (W/W
same,Increase of retinal uptake of [3H]-ganciclovir above vehicle treated controls,"blood-ocular barrier [2]; retina, intravenous A-7, p=0.001",more than 2 fold
